Assay results: patent US12281095B2, “Pesticidally active diazine-amide compounds” (SYNGENTA CROP PROTECTION AG, priority 2019, dated 2025)

Columns and labels:
Assay type in all cases: in vivo
[1] = system: Diabrotica balteata (Corn Root Worm); assay: Example B1: Diabrotica balteata (Corn Root Worm), sprayed maize sprouts; details: 96 h, application rate of 200 ppm, L2 larvae, 4 days after infestation, read-out: control in at least one of the two categories (mortality or growth inhibition)
Experimental: Example B1: Diabrotica balteata (Corn Root Worm)
Maize sprouts placed onto an agar layer in 24-well microtiter plates were treated with aqueous test solutions prepared from 10′000 ppm DMSO stock solutions by spraying. After drying, the plates were infested with L2 larvae (6 to 10 per well). The samples were assessed for mortality and growth inhibition in comparison to untreated samples 4 days after infestation.

[2] = system: Chilo suppressalis (Striped Rice Stemborer); assay: Example B4: Chilo suppressalis (Striped Rice Stemborer), artificial diet; details: 144 h, application rate of 200 ppm, L2 larvae, 6 days after infestation, read-out: control in at least one of the three categories (mortality, anti-feedant or growth inhibition)
Experimental: Example B4: Chilo suppressalis (Striped Rice Stemborer)
24-well microtiter plates with artificial diet were treated with aqueous test solutions prepared from 10′000 ppm DMSO stock solutions by pipetting. After drying, the plates were infested with L2 larvae (6-8 per well). The samples were assessed for mortality, anti-feeding effect, and growth inhibition in comparison to untreated samples 6 days after infestation. Control of Chilo suppressalis by a test sample is given when at least one of the categories mortality, anti-feedant effect, and growth inhibition is higher than the untreated sample.

[3] = system: Plutella xylostella (Diamond Back Moth); assay: Example B5: Plutella xylostella (Diamond Back Moth), artificial diet, 24-well; details: 192 h, application rate of 200 ppm, eggs, 8 days after infestation, read-out: control in at least one of the two categories (mortality or growth inhibition)
Experimental: Example B5: Plutella xylostella (Diamond Back Moth)
24-well microtiter plates with artificial diet were treated with aqueous test solutions prepared from 10′000 ppm DMSO stock solutions by pipetting. After drying, Plutella eggs were pipetted through a plastic stencil onto a gel blotting paper and the plate was closed with it. The samples were assessed for mortality and growth inhibition in comparison to untreated samples 8 days after infestation.

[4] = system: Spodoptera littoralis (Egyptian Cotton Leaf Worm); assay: Example B9: Spodoptera littoralis (Egyptian Cotton Leaf Worm), sprayed cotton leaf discs; details: foliar, 72 h, application rate of 200 ppm, L1 larvae, 3 days after infestation, read-out: control in at least one of the three categories (mortality, anti-feedant or growth inhibition)

CC(NC(=O)c1cc(C(F)(F)F)nc(C2(C#N)CC2)c1)c1nccnc1-c1ccc(OC(F)F)cn1 (centres unmarked) [P1, 2-(1-cyanocyclopropyl)-N-[1-[3-[5-(difluoromethoxy)-2-pyridyl]pyrazin-2-yl]ethyl]-6-(trifluoromethyl)pyridine-4-carboxamide]
≥ 80%: percent control (mortality or growth inhibition) at 200 ppm [1] | percent control (mortality, anti-feedant effect or growth inhibition) at 200 ppm [2] | percent control (mortality or growth inhibition) at 200 ppm [3] | percent control (mortality, anti-feedant effect or growth inhibition) at 200 ppm [4]

CC(NC(=O)c1cc(C(F)(F)F)cc(C2(C#N)CC2)c1)c1nccnc1-c1ccc(OC(F)F)cn1 (centres unmarked) [P3, 3-(1-cyanocyclopropyl)-N-[1-[3-[5-(difluoromethoxy)-2-pyridyl]pyrazin-2-yl]ethyl]-5-(trifluoromethyl)benzamide]
≥ 80%: percent control (mortality or growth inhibition) at 200 ppm [1] | percent control (mortality, anti-feedant effect or growth inhibition) at 200 ppm [2] | percent control (mortality or growth inhibition) at 200 ppm [3] | percent control (mortality, anti-feedant effect or growth inhibition) at 200 ppm [4]

CC(NC(=O)c1cc(C(F)(F)F)cc(C(F)(F)C2CC2)c1)c1nccnc1-c1ncc(OCC(F)(F)F)cn1 (centres unmarked) [P4, 3-[cyclopropyl(difluoro)methyl]-N-[1-[3-[5-(2,2,2-trifluoroethoxy)pyrimidin-2-yl]pyrazin-2-yl]ethyl]-5-(trifluoromethyl)benzamide]
≥ 80%: percent control (mortality or growth inhibition) at 200 ppm [1] | percent control (mortality, anti-feedant effect or growth inhibition) at 200 ppm [2] | percent control (mortality or growth inhibition) at 200 ppm [3] | percent control (mortality, anti-feedant effect or growth inhibition) at 200 ppm [4]

CC(NC(=O)c1cc(C(F)(F)F)cc(C(F)(F)C2CC2)c1)c1nccnc1-c1ccc(OC(F)F)cn1 (centres unmarked) [P5, 3-[cyclopropyl(difluoro)methyl]-N-[1-[3-[5-(difluoromethoxy)-2-pyridyl]pyrazin-2-yl]ethyl]-5-(trifluoromethyl)benzamide]
≥ 80%: percent control (mortality, anti-feedant effect or growth inhibition) at 200 ppm [2] | percent control (mortality or growth inhibition) at 200 ppm [3] | percent control (mortality, anti-feedant effect or growth inhibition) at 200 ppm [4]

CC(NC(=O)c1cc(C2CC2)cc(C(F)(F)F)c1)c1nccnc1-c1ncc(OCC(F)(F)F)cn1 (centres unmarked) [P6, 3-cyclopropyl-N-[1-[3-[5-(2,2,2-trifluoroethoxy)pyrimidin-2-yl]pyrazin-2-yl]ethyl]-5-(trifluoromethyl)benzamide]
≥ 80%: percent control (mortality or growth inhibition) at 200 ppm [1] | percent control (mortality, anti-feedant effect or growth inhibition) at 200 ppm [2] | percent control (mortality or growth inhibition) at 200 ppm [3] | percent control (mortality, anti-feedant effect or growth inhibition) at 200 ppm [4]

CC(NC(=O)c1cc(C2CC2)cc(C(F)(F)F)c1)c1nccnc1-c1ccc(OC(F)F)cn1 (centres unmarked) [P7, 3-cyclopropyl-N-[1-[3-[5-(difluoromethoxy)-2-pyridyl]pyrazin-2-yl]ethyl]-5-(trifluoromethyl)benzamide]
≥ 80%: percent control (mortality or growth inhibition) at 200 ppm [1] | percent control (mortality, anti-feedant effect or growth inhibition) at 200 ppm [2] | percent control (mortality or growth inhibition) at 200 ppm [3] | percent control (mortality, anti-feedant effect or growth inhibition) at 200 ppm [4]

CC(NC(=O)c1cc(C(F)(F)F)cc(C(C)(C)C#N)c1)c1nccnc1-c1ncc(OC(F)F)cn1 (centres unmarked) [P8, 3-(1-cyano-1-methyl-ethyl)-N-[1-[3-[5-(difluoromethoxy)pyrimidin-2-yl]pyrazin-2-yl]ethyl]-5-(trifluoromethyl)benzamide]
≥ 80%: percent control (mortality or growth inhibition) at 200 ppm [1] | percent control (mortality, anti-feedant effect or growth inhibition) at 200 ppm [2] | percent control (mortality or growth inhibition) at 200 ppm [3] | percent control (mortality, anti-feedant effect or growth inhibition) at 200 ppm [4]

CC(NC(=O)c1cc(C(F)(F)F)cc(C(C)(C)C#N)c1)c1nccnc1-c1ccc(OCC(F)(F)F)cn1 (centres unmarked) [P10, 3-(1-cyano-1-methyl-ethyl)-N-[1-[3-[5-(2,2,2-trifluoroethoxy)-2-pyridyl]pyrazin-2-yl]ethyl]-5-(trifluoromethyl)benzamide]
≥ 80%: percent control (mortality, anti-feedant effect or growth inhibition) at 200 ppm [2] | percent control (mortality or growth inhibition) at 200 ppm [3] | percent control (mortality, anti-feedant effect or growth inhibition) at 200 ppm [4]

CC(NC(=O)c1cc(C(F)(F)F)cc(S(=O)(=O)C(F)(F)F)c1)c1nccnc1-c1ccc(OC(F)F)cn1 (centres unmarked) [P11, N-[1-[3-[5-(difluoromethoxy)-2-pyridyl]pyrazin-2-yl]ethyl]-3-(trifluoromethyl)-5-(trifluoromethylsulfonyl)benzamide]
≥ 80%: percent control (mortality, anti-feedant effect or growth inhibition) at 200 ppm [2] | percent control (mortality or growth inhibition) at 200 ppm [3] | percent control (mortality, anti-feedant effect or growth inhibition) at 200 ppm [4]

CC(NC(=O)c1cc(C(F)(F)F)cc(S(=O)(=O)C(F)(F)F)c1)c1nccnc1-c1ncc(OCC(F)(F)F)cn1 (centres unmarked) [P12, N-[1-[3-[5-(2,2,2-trifluoroethoxy)pyrimidin-2-yl]pyrazin-2-yl]ethyl]-3-(trifluoromethyl)-5-(trifluoromethylsulfonyl)benzamide]
≥ 80%: percent control (mortality, anti-feedant effect or growth inhibition) at 200 ppm [2] | percent control (mortality or growth inhibition) at 200 ppm [3] | percent control (mortality, anti-feedant effect or growth inhibition) at 200 ppm [4]

CC(NC(=O)c1cc(C(F)(F)F)cc(C(C)(C)C#N)c1)c1nccnc1-c1ccc(OC(F)F)cn1 (centres unmarked) [P13, 3-(1-cyano-1-methyl-ethyl)-N-[1-[3-[5-(difluoromethoxy)-2-pyridyl]pyrazin-2-yl]ethyl]-5-(trifluoromethyl)benzamide]
≥ 80%: percent control (mortality or growth inhibition) at 200 ppm [1] | percent control (mortality, anti-feedant effect or growth inhibition) at 200 ppm [2] | percent control (mortality or growth inhibition) at 200 ppm [3] | percent control (mortality, anti-feedant effect or growth inhibition) at 200 ppm [4]

CC(NC(=O)c1cc(C2CC2)cc(C(F)(F)F)c1)c1nccnc1-c1ccc(C#N)cn1 (centres unmarked) [P14, N-[1-[3-(5-cyano-2-pyridyl)pyra-zin-2-yl]ethyl]-3-cyclopropyl-5-(trifluoromethyl)benzamide]
≥ 80%: percent control (mortality, anti-feedant effect or growth inhibition) at 200 ppm [2] | percent control (mortality or growth inhibition) at 200 ppm [3] | percent control (mortality, anti-feedant effect or growth inhibition) at 200 ppm [4]

CC(NC(=O)c1cc(C(F)(F)F)cc(S(=O)(=O)C(F)(F)F)c1)c1nccnc1-c1ccc(C#N)cn1 (centres unmarked) [P15, N-[1-[3-(5-cyano-2-pyridyl)pyra-zin-2-yl]ethyl]-3-(trifluoromethyl)-5-(trifluoromethylsulfonyl)benza-mide]
≥ 80%: percent control (mortality, anti-feedant effect or growth inhibition) at 200 ppm [2] | percent control (mortality or growth inhibition) at 200 ppm [3] | percent control (mortality, anti-feedant effect or growth inhibition) at 200 ppm [4]

CC(NC(=O)c1cc(C(F)(F)F)nc(C2(C#N)CC2)c1)c1nccnc1-c1ccc(C#N)cn1 (centres unmarked) [P16, 2-(1-cyanocyclopropyl)-N-[1-[3-(5-cyano-2-pyridyl)pyrazin-2-yl]eth-yl]-6-(trifluoromethyl)pyridine-4-carboxamide]
≥ 80%: percent control (mortality or growth inhibition) at 200 ppm [1] | percent control (mortality, anti-feedant effect or growth inhibition) at 200 ppm [2] | percent control (mortality or growth inhibition) at 200 ppm [3] | percent control (mortality, anti-feedant effect or growth inhibition) at 200 ppm [4]

CC(NC(=O)c1cc(C2CC2)nc(C(F)(F)F)c1)c1nccnc1-c1ccc(C#N)cn1 (centres unmarked) [P17, N-[1-[3-(5-cyano-2-pyridyl)pyra-zin-2-yl]ethyl]-2-cyclopropyl-6-(trifluoromethyl)pyridine-4-carboxamide]
≥ 80%: percent control (mortality, anti-feedant effect or growth inhibition) at 200 ppm [2] | percent control (mortality or growth inhibition) at 200 ppm [3] | percent control (mortality, anti-feedant effect or growth inhibition) at 200 ppm [4]

CC(NC(=O)c1cc(C(F)(F)F)cc(C(F)(F)C2CC2)c1)c1nccnc1-c1ccc(C#N)cn1 (centres unmarked) [P18, N-[1-[3-(5-cyano-2-pyridyl)pyra-zin-2-yl]ethyl]-3-[cyclopropyl(difluoro)methyl]-5-(trifluoromethyl)benzamide]
≥ 80%: percent control (mortality, anti-feedant effect or growth inhibition) at 200 ppm [2] | percent control (mortality or growth inhibition) at 200 ppm [3] | percent control (mortality, anti-feedant effect or growth inhibition) at 200 ppm [4]

CC(NC(=O)c1cc(C(F)(F)F)cc(C(F)(F)C2CC2)c1)c1nccnc1-c1ccc(OCC(F)F)cn1 (centres unmarked) [P30, 3-[cyclopropyl(difluoro)methyl]-N-[1-[3-[5-(2,2-difluoroethoxy)-2-pyridyl]pyrazin-2-yl]ethyl]-5-(trifluoromethyl)benzamide]
≥ 80%: percent control (mortality or growth inhibition) at 200 ppm [3]

CC(NC(=O)c1cc(C2CC2)nc(C(F)(F)F)c1)c1nccnc1-c1ncc(OCC(F)F)cn1 (centres unmarked) [P35, 2-cyclopropyl-N-[1-[3-[5-(2,2-difluoroethoxy)pyrimidin-2-yl]pyrazin-2-yl]ethyl]-6-(trifluoromethyl)pyridine-4-carboxamide]
≥ 80%: percent control (mortality, anti-feedant effect or growth inhibition) at 200 ppm [2] | percent control (mortality or growth inhibition) at 200 ppm [3] | percent control (mortality, anti-feedant effect or growth inhibition) at 200 ppm [4]

CC(NC(=O)c1cc(OC(F)(F)F)cc(C2(C#N)CC2)c1)c1nccnc1-c1ccc(C#N)cn1 (centres unmarked) [P45, 3-(1-cyanocyclopropyl)-N-[1-[3-(5-cyano-2-pyridyl)pyrazin-2-yl]ethyl]-5-(trifluorometh-oxy)benzamide]
≥ 80%: percent control (mortality, anti-feedant effect or growth inhibition) at 200 ppm [2] | percent control (mortality or growth inhibition) at 200 ppm [3]
